Experiment [1] relates to p21 induction in HCT 116 cells. The experiment in a line: p21 induction in cells (In-Cell Western, p21/GAPDH ratio). It counts as cell-based. The conditions noted are these: 24 h compound incubation, read-out: p21_EC50. An outline of the steps:
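EC50 values come from nonlinear fits of percent activation, defined by the 800/700 nm p21-to-GAPDH ratio scaled between DMSO (low) and internal WRN inhibitor (high) controls. In-Cell Western read after 24 h compound exposure of HCT 116 cells at 37° C. Duplicate 11-point series, 2-fold steps, usually starting at 10 μM.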

The target of experiment [2] is human Werner helicase (WRN, amino acids 517-1235 with L1074F point mutation) (Homo sapiens (Human), UniProt Q14191, L1074F). Put plainly: WRN (BV08) ADP-Glo assay. It is filed as biochemical. The settings on record: human WRN (aa 517-1235, L1074F), read-out: ADP-Glo_hWRN_IC50. An outline of the steps:
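ADP-Glo luminescence read after 60 min, 25 °C reaction of 0.15 nM WRN (517-1235, L1074F, Sf9-expressed, tag removed) with 0.1 nM DNA duplex and 5 μM ATP, following 15 min compound preincubation; 20 mM Bicine pH 7.5, 1% DMSO. IC50 from 3- or 4-parameter fit of % inhibition.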
Background: ADP-Glo turns the ADP formed in a reaction into a luminescent signal.

Like-named read-outs stand apart in the source and are kept apart here.

human Werner helicase (WRN, amino acids 517-1235 with L1074F point mutation), sequence (Q14191 other isoform, or with tags, fused parts or gaps L1074F (already in the parent)): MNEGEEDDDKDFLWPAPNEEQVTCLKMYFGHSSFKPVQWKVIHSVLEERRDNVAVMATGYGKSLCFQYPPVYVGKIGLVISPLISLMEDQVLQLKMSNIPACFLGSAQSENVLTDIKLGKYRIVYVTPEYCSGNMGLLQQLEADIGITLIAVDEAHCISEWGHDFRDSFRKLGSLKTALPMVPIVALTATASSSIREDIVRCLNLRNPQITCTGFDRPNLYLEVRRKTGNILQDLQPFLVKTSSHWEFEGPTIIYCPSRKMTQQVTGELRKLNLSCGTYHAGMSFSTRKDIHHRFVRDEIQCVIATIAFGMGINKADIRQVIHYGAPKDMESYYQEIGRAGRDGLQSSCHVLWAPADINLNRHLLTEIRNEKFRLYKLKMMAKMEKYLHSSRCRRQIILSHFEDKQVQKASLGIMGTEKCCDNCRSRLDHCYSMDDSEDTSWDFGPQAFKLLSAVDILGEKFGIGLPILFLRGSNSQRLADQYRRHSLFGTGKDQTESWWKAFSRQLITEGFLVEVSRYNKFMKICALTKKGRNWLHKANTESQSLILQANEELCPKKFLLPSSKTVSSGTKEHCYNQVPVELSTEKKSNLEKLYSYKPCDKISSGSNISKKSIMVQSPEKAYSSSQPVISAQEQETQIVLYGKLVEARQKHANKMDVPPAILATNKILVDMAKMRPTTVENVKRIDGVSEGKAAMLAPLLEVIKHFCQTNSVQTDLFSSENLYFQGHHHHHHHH

In the case of `CCc1c(N2CCN(C(=O)c3c(OC(F)F)ncc(C)c3O)CC2)c(=O)c2nn(-c3ccnc(OC)c3)nc2n1CC(=O)NC12CC(C(C)C)(C1)C2` [Compound I-56, 2-(6-{4-[2-(difluoromethoxy)-4-hydroxy-5-methylpyridine-3-carbonyl]piperazin-1-yl}-5-ethyl-2-(2-methoxypyridin-4-yl)-7-oxo-2H,4H,7H-[1,2,3]triazolo[4,5-b]pyridin-4-yl)-N-[3-(propan-2-yl)bicyclo[1.1.1]pentan-1-yl]acetamide], the EC50 in experiment [1] (Homo sapiens) was at most 500 nM. The IC50 in experiment [2] was 5 to 50 nM.

In the case of `CCc1c(N2CCN(C(=O)c3ncnc(C)c3O)[C@H]3CC[C@@H]32)c(=O)c2nn(-c3cnn(C4CC4)c3)nc2n1CC(=O)Nc1ccc(C(F)(F)F)cc1Cl` [Compound I-57, N-[2-chloro-4-(trifluoromethyl)phenyl]-2-[2-(1-cyclopropyl-1H-pyrazol-4-yl)-5-ethyl-6-[(1S,6S)-5-(5-hydroxy-6-methylpyrimidine-4-carbonyl)-2,5-diazabicyclo[4.2.0]octan-2-yl]-7-oxo-2H,4H,7H-[1,2,3]triazolo[4,5-b]pyridin-4-yl]acetamide], the EC50 in experiment [1] (Homo sapiens) was at most 500 nM. In experiment [2], the IC50 is at most 5 nM.

On to `CCc1c(N2CCN(C(=O)c3ncnc(C)c3O)[C@H]3CC[C@@H]32)c(=O)c2nn(-c3cnn(C4CC4)c3)nc2n1CC(=O)NC12CC(C(C)C)(C1)C2` [Compound I-58, 2-[2-(1-cyclopropyl-1H-pyrazol-4-yl)-5-ethyl-6-[(1S,6S)-5-(5-hydroxy-6-methylpyrimidine-4-carbonyl)-2,5-diazabicyclo[4.2.0]octan-2-yl]-7-oxo-2H,4H,7H-[1,2,3]triazolo[4,5-b]pyridin-4-yl]-N-[3-(propan-2-yl)bicyclo[1.1.1]pentan-1-yl]acetamide], for which, in experiment [1], the EC50 was at most 500 nM. In experiment [2], the IC50 lay in the range of 5 to 50 nM.

Turning to `CCc1c(N2CCN(C(=O)c3ncnc(C)c3O)[C@H]3CC[C@@H]32)c(=O)c2nn(-c3ccnc(C)c3)nc2n1CC(=O)Nc1ccc(C(F)(F)F)cc1F` [Compound I-59, 2-{5-ethyl-6-[(1S,6S)-5-(5-hydroxy-6-methylpyrimidine-4-carbonyl)-2,5-diazabicyclo[4.2.0]octan-2-yl]-2-(2-methylpyridin-4-yl)-7-oxo-2H,4H,7H-[1,2,3]triazolo[4,5-b]pyridin-4-yl}-N-[2-fluoro-4-(trifluoromethyl)phenyl]acetamide], the EC50 in experiment [1] (Homo sapiens) was at most 500 nM. For the same compound, in experiment [2], the IC50 is at most 5 nM.

In the case of `CCc1c(N2CCN(C(=O)c3ncnc(C)c3O)[C@H]3CC[C@@H]32)c(=O)c2nn(-c3ccnc(OC)c3)nc2n1CC(=O)NC12CC(C(C)(F)F)(C1)C2` [Compound I-61, N-[3-(1,1-difluoroethyl)bicyclo[1.1.1]pentan-1-yl]-2-{5-ethyl-6-[(1S,6S)-5-(5-hydroxy-6-methylpyrimidine-4-carbonyl)-2,5-diazabicyclo[4.2.0]octan-2-yl]-2-(2-methoxypyridin-4-yl)-7-oxo-2H,4H,7H-[1,2,3]triazolo[4,5-b]pyridin-4-yl}acetamide], in experiment [1], the EC50 is at most 500 nM. Besides, the IC50 in experiment [2] lay within 5 to 50 nM.

For the compound `CCc1c(N2CCN(C(=O)c3c(Oc4cnn(C)c4)ncc(C)c3O)CC2)c(=O)c2nn(-c3ccnc(OC)c3)nc2n1CC(=O)NC12CC(C(C)C)(C1)C2` [Compound I-63, 2-[5-ethyl-6-(4-{4-hydroxy-5-methyl-2-[(1-methyl-1H-pyrazol-4-yl)oxy]pyridine-3-carbonyl}piperazin-1-yl)-2-(2-methoxypyridin-4-yl)-7-oxo-2H,4H,7H-[1,2,3]triazolo[4,5-b]pyridin-4-yl]-N-[3-(propan-2-yl)bicyclo[1.1.1]pentan-1-yl]acetamide], the EC50 in experiment [1] (Homo sapiens) was at most 500 nM. Moreover, the IC50 in experiment [2] fell in the range of 5 to 50 nM.

`CCc1c(N2CCN(C(=O)c3c(OC)ncc(OC)c3O)CC2)c(=O)c2nn(-c3ccnc(OC)c3)nc2n1CC(=O)NC12CC(C(C)C)(C1)C2` [Compound I-64, 2-{5-ethyl-6-[4-(4-hydroxy-2,5-dimethoxypyridine-3-carbonyl)piperazin-1-yl]-2-(2-methoxypyridin-4-yl)-7-oxo-2H,4H,7H-[1,2,3]triazolo[4,5-b]pyridin-4-yl}-N-[3-(propan-2-yl)bicyclo[1.1.1]pentan-1-yl]acetamide]: the EC50 in experiment [1] (Homo sapiens) was at most 500 nM. For the same compound, in experiment [2], the IC50 lay within 5 to 50 nM.

In the case of `CCc1c(N2CCN(C(=O)c3c(OC)ncc(C4CC4)c3O)CC2)c(=O)c2nn(-c3ccnc(OC)c3)nc2n1CC(=O)NC12CC(C(C)C)(C1)C2` [Compound I-65, 2-{6-[4-(5-cyclopropyl-4-hydroxy-2-methoxypyridine-3-carbonyl)piperazin-1-yl]-5-ethyl-2-(2-methoxypyridin-4-yl)-7-oxo-2H,4H,7H-[1,2,3]triazolo[4,5-b]pyridin-4-yl}-N-[3-(propan-2-yl)bicyclo[1.1.1]pentan-1-yl]acetamide], in experiment [1] (Homo sapiens), the EC50 was 500 to 2000 nM. Also, in experiment [2], the IC50 was in the range of 5 to 50 nM.

Regarding `CCc1c(N2CCN(C(=O)c3ncnc(C)c3O)[C@H]3CC[C@@H]32)c(=O)c2nn(-c3ccnc(OC)c3)nc2n1CC(=O)NC1CCC2(CCC2)C1` (stereo partly drawn) [Compound I-66, 2-{5-ethyl-6-[(1S,6S)-5-(5-hydroxy-6-methylpyrimidine-4-carbonyl)-2,5-diazabicyclo[4.2.0]octan-2-yl]-2-(2-methoxypyridin-4-yl)-7-oxo-2H,4H,7H-[1,2,3]triazolo[4,5-b]pyridin-4-yl}-N-{spiro[3.4]octan-6-yl}acetamide], the EC50 in experiment [1] (Homo sapiens) was at most 500 nM. In addition, the IC50 in experiment [2] was 5 to 50 nM.

In the case of `CCc1c(N2CCN(C(=O)c3ncnc(C)c3O)[C@H]3CC[C@@H]32)c(=O)c2nn(-c3ccnc(OC)c3)nc2n1CC(=O)NC1CCC2(CC1)CC2(F)F` (stereo partly drawn) [Compound I-67, N-{1,1-difluorospiro[2.5]octan-6-yl}-2-{5-ethyl-6-[(1S,6S)-5-(5-hydroxy-6-methylpyrimidine-4-carbonyl)-2,5-diazabicyclo[4.2.0]octan-2-yl]-2-(2-methoxypyridin-4-yl)-7-oxo-2H,4H,7H-[1,2,3]triazolo[4,5-b]pyridin-4-yl}acetamide], the EC50 in experiment [1] (Homo sapiens) is over 5000 nM. Moreover, the IC50 in experiment [2] was in the range of 5 to 50 nM.

In the case of `CCc1c(N2CCN(C(=O)c3ncnc(C)c3O)[C@H]3CC[C@@H]32)c(=O)c2nn(-c3ccnc(OC)c3)nc2n1CC(=O)NC1CC2(CCC(F)(F)CC2)C1` [Compound I-68, N-{7,7-difluorospiro[3.5]nonan-2-yl}-2-{5-ethyl-6-[(1S,6S)-5-(5-hydroxy-6-methylpyrimidine-4-carbonyl)-2,5-diazabicyclo[4.2.0]octan-2-yl]-2-(2-methoxypyridin-4-yl)-7-oxo-2H,4H,7H-[1,2,3]triazolo[4,5-b]pyridin-4-yl}acetamide], the EC50 in experiment [1] (Homo sapiens) was over 5000 nM. In addition, the IC50 in experiment [2] was in the range of 5 to 50 nM.

`CCc1c(N2CCN(C(=O)c3ncnc(C)c3O)[C@H]3CC[C@@H]32)c(=O)c2nn(-c3ccnc(OC)c3)nc2n1CC(=O)NC1CC2(C1)CC2F` (stereo partly drawn) [Compound I-69, 2-{5-ethyl-6-[(1S,6S)-5-(5-hydroxy-6-methylpyrimidine-4-carbonyl)-2,5-diazabicyclo[4.2.0]octan-2-yl]-2-(2-methoxypyridin-4-yl)-7-oxo-2H,4H,7H-[1,2,3]triazolo[4,5-b]pyridin-4-yl}-N-{1-fluorospiro[2.3]hexan-5-yl}acetamide]: the EC50 in experiment [1] (Homo sapiens) is 500 to 2000 nM. Further, the IC50 in experiment [2] was 5 to 50 nM.

With `CCc1c(N2CCN(C(=O)c3ncnc(C)c3O)[C@H]3CC[C@@H]32)c(=O)c2nn(-c3ccnc(OC)c3)nc2n1CC(=O)NC1CC2(C1)CC(F)(F)C2` [Compound I-70, N-{6,6-difluorospiro[3.3]heptan-2-yl}-2-{5-ethyl-6-[(1S,6S)-5-(5-hydroxy-6-methylpyrimidine-4-carbonyl)-2,5-diazabicyclo[4.2.0]octan-2-yl]-2-(2-methoxypyridin-4-yl)-7-oxo-2H,4H,7H-[1,2,3]triazolo[4,5-b]pyridin-4-yl}acetamide], in experiment [1] (Homo sapiens), the EC50 lay within 500 to 2000 nM. Moreover, in experiment [2], the IC50 was in the range of 5 to 50 nM.

Consider `CCc1c(N2CCN(C(=O)c3ncnc(C)c3O)[C@H]3CC[C@@H]32)c(=O)c2nn(-c3ccnc(OC)c3)nc2n1CC(=O)NC1CC2(CCC2)C1OC` (stereo partly drawn) [Compound I-71, 2-{5-ethyl-6-[(1S,6S)-5-(5-hydroxy-6-methylpyrimidine-4-carbonyl)-2,5-diazabicyclo[4.2.0]octan-2-yl]-2-(2-methoxypyridin-4-yl)-7-oxo-2H,4H,7H-[1,2,3]triazolo[4,5-b]pyridin-4-yl}-N-{1-methoxyspiro[3.3]heptan-2-yl}acetamide], for which the EC50 in experiment [1] (Homo sapiens) was over 5000 nM. In addition, the IC50 in experiment [2] was 100 to 500 nM.

Take `CCc1c(N2CCN(C(=O)c3ncnc(C)c3O)[C@H]3CC[C@@H]32)c(=O)c2nn(-c3ccnc(OC)c3)nc2n1CC(=O)NC1CC2(C1)CC(C)(C)C2` [Compound I-72, N-{6,6-dimethylspiro[3.3]heptan-2-yl}-2-{5-ethyl-6-[(1S,6S)-5-(5-hydroxy-6-methylpyrimidine-4-carbonyl)-2,5-diazabicyclo[4.2.0]octan-2-yl]-2-(2-methoxypyridin-4-yl)-7-oxo-2H,4H,7H-[1,2,3]triazolo[4,5-b]pyridin-4-yl}acetamide]: in experiment [1] (Homo sapiens), the EC50 was in the range of 2000 to 5000 nM. In addition, the IC50 in experiment [2] lay in the range of 5 to 50 nM.

On to `CCc1c(N2CCN(C(=O)c3c(OC)ncc(C)c3O)[C@H]3CC[C@@H]32)c(=O)c2nn(-c3ccnc(C)c3)nc2n1CC(=O)NC12CC(C3CC3)(C1)C2` [Compound I-74, N-{3-cyclopropylbicyclo[1.1.1]pentan-1-yl}-2-{5-ethyl-6-[(1S,6S)-5-(4-hydroxy-2-methoxy-5-methylpyridine-3-carbonyl)-2,5-diazabicyclo[4.2.0]octan-2-yl]-2-(2-methylpyridin-4-yl)-7-oxo-2H,4H,7H-[1,2,3]triazolo[4,5-b]pyridin-4-yl}acetamide], for which the EC50 in experiment [1] (Homo sapiens) was at most 500 nM. For the same compound, the IC50 in experiment [2] is 5 to 50 nM.
